Data: patent US20060128708A1, “Antagonizing an adenosine A2A receptor to ameliorate one or more components of addictive behavior” (priority 2004, published 2006)
Values after ≈ are worked out from the molar mass of the structure shown. “Also recorded” adds a separate entry of the source.

How the values were obtained:
[1] = Highest soluble concentration of DMPX in the injection vehicle; type: physicochemical; conditions: saline or isotonic; dissolved in warm saline; read-out: highest DMPX soluble concentration achieved
Procedure: (§1) EtOH dilution (10% v/v) for self-administration was made up using 95% ethyl alcohol and tap water. Sucrose (Saccharose, Fisher Scientific, Fair Lawn, N.J., USA) solution (10% w/v) was made up with tap water. All the compounds tested were obtained from Sigma Chemical Co. (St. Louis, Mo.). The A2A antagonist DMPX (3,7-Dimethyl-1-propargylxanthine) was dissolved in warm saline. The A1 antagonist DPCPX (8-Cyclopentyl-1,3-dipropylxanthine) was dissolved in 20:80 v/v mixture of Alkamuls EL-620 (Rhodia Inc., Cranbury, N.J., USA) and phosphate buffered saline. The D2 antagonist, eticlopride, was dissolved in saline. Drugs were administered in a 1 ml/kg volume except for the group tested with 5, 7 and 20 mg/kg DMPX, in which the injection volume was 2 ml/kg as the highest DMPX soluble concentration achieved was 10 mg/ml. Drugs were prepared fresh every treatment day.

Male Long Evans rats = experiment: Ethanol operant self-administration in rats (30 min FR3 session, 10% EtOH); type: in vivo, rat
Procedure: Separate groups of rats were given the D2 antagonist eticlopride (0.005, 0.007, 0.01 mg/kg), the A2A antagonist DMPX (1, 3, 5, 7, 10 and 20 mg/kg) and the Al antagonist DPCPX (0.125, 0.25, 0.5 mg/kg) by systemic injections.
Male Long Evans rats (Harlan, Indianapolis, Ind.) weighing approximately 250 g at the beginning of the studies, were individually housed with food and water available ad libitum except when stated otherwise. They were maintained on a 12 h light/dark cycle, lights on at 7:00 am. Operant training occurred between 8:30 am and 2:00 pm. The experimental procedures were approved in advance by our Institutional Animal Care and Use Committee.
as §1
EtOH operant self-administration was carried out in standard operant chambers (Med Associates, Georgia, Vt.) housed in sound-attenuated cubicles. Each chamber (33×30.5×33 cm) contained two retractable levers against the right wall, 7 cm from the floor and 1 cm from the right or left edge of the right wall, respectively. One recessed dish positioned at 2.5 cm above floor level and 6 cm from the levers towards the center of the chamber was the reinforcer receptacle. Fluid (0.1 ml) was delivered from syringe pumps upon activation of 1 of the 2 retractable response levers. A 3 sec tone was activated upon lever pressing. […] The beginning of a training session was signaled by the onset of the house light located in the center of the wall facing the levers, at 27.2 cm above the floor. A computer controlled stimulus and fluid delivery and recorded operant responses.
Before the beginning of EtOH operant self-administration, rats were exposed to a 10% EtOH (1OE) solution as the only liquid source in their home cages for 4 days. For the next 14 days, animals were allowed free choice between 10E in tap water or tap water from graded glass tubes. At the end of this 14-day period, operant self-administration was initiated according to the sucrose fading technique (Samson, 1986) with minor modifications. Rats were restricted to 30 minutes of water per day for 2 consecutive days. On the night of the second day of water restriction, rats were placed in the operant chambers for a 12-15 hrs overnight session on an FR1 schedule (1 reinforcement of 0.1 ml per lever press) with 10% sucrose (10S) as reinforcer and both levers active. The next day, rats began the operant self-administration training. Animals were kept on water restriction for the next 4-5 days during which they received one 45 min session per day on an FR1 schedule with 10S as reinforcer and one active lever. They were then given free water in their home cages for the remainder of the experiment and were trained for 2-3 more of the above described sessions. The next day, sessions were shortened to 30 minutes and the ratio of responding was increased to FR3. EtOH was added to the sweet solution (10S10E) and rats received 3-4 sessions of this solution, followed by at least 20 sessions with 10E only. A minimum average of 0.3 g/kg EtOH consumption in 8 sessions prior to the beginning of any drug treatment was required. […]

[2] = DMPX 1 mg/kg ip, vs saline, p<0.03
[3] = DMPX 10 mg/kg ip, vs saline, p<0.02
[4] = DMPX 20 mg/kg ip, vs saline, p<0.05
[5] = DPCPX 0.125, 0.25, or 0.5 mg/kg ip, ANOVA NS

C#CCn1c(=O)c2c(ncn2C)n(C)c1=O [DMPX, 3,7-Dimethyl-1-propargylxanthine]
solubility [1]: 10000 µg/mL (≈ 45.8 mM) | number of lever presses (Male Long Evans rats; DMPX 1 mg/kg ip, vs saline, p<0.02): significantly increased | g/kg of EtOH intake (Male Long Evans rats; [2]): significantly increased | number of EtOH reinforcements (Male Long Evans rats; [2]): significantly increased | any of the measures (lever presses, EtOH reinforcements, g/kg EtOH) (Male Long Evans rats; DMPX 3 mg/kg ip, vs saline): did not significantly affect | any of the measures (lever presses, EtOH reinforcements, g/kg EtOH) (Male Long Evans rats; DMPX 5 mg/kg ip, vs saline): did not significantly affect | any of the measures (lever presses, EtOH reinforcements, g/kg EtOH) (Male Long Evans rats; DMPX 7 mg/kg ip, vs saline): did not significantly affect | g/kg of EtOH consumption (Male Long Evans rats; [3]): significantly decreased | number of lever presses (Male Long Evans rats; [3]): significantly decreased | number of EtOH reinforcements (Male Long Evans rats; DMPX 10 mg/kg ip, vs saline, p<0.03): significantly decreased | g/kg EtOH intake (Male Long Evans rats; [4]): decreased | number EtOH reinforcements (Male Long Evans rats; [4]): significant effect | EtOH self-administration, dose-effect function (Male Long Evans rats; DMPX 1-20 mg/kg ip): bimodal effect

CCc1cc(Cl)c(OC)c(C(=O)NC[C@@H]2CCCN2CC)c1O [eticlopride]
any of the analyzed measurements (lever presses, reinforcements, g/kg EtOH) (Male Long Evans rats; eticlopride 0.005 mg/kg sc, vs saline): did not significantly affect | number of lever presses (Male Long Evans rats; eticlopride 0.007 mg/kg sc, vs saline, decrease, p<0.005): significant effects | g/kg of EtOH consumption (Male Long Evans rats; eticlopride 0.007 mg/kg sc, vs saline, decrease, p<0.01): significant effects | number of reinforcements (Male Long Evans rats; eticlopride 0.007 mg/kg sc, vs saline, decrease, p<0.02): significant effects | number of lever presses (Male Long Evans rats; eticlopride 0.01 mg/kg sc, vs saline, decrease, p<0.0001): significant effects | g/kg of EtOH consumption (Male Long Evans rats; eticlopride 0.01 mg/kg sc, vs saline, decrease, p<0.004): significant effects | number of reinforcements (Male Long Evans rats; eticlopride 0.01 mg/kg sc, vs saline, decrease, p<0.007): significant effects | EtOH self-administration, effect across doses (Male Long Evans rats; eticlopride 0.005-0.01 mg/kg sc): dose-dependently decreased | EtOH self-administration, effect across doses (Male Long Evans rats; eticlopride 0.005-0.01 mg/kg sc, listed as Eticlopride): dose-dependently reduced

CCCn1c(=O)c2[nH]c(C3CCCC3)nc2n(CCC)c1=O [DPCPX, 8-Cyclopentyl-1,3-dipropylxanthine]
g/kg of EtOH consumption (Male Long Evans rats; [5]): no effect | number of EtOH reinforcements (Male Long Evans rats; [5]): no effect | number of lever presses (Male Long Evans rats; [5]): no effect | EtOH self-administration, effect across doses (Male Long Evans rats; DPCPX 0.125-0.5 mg/kg ip): without effect; also recorded: did not affect
